Patent publication US11884676B2, “Substituted pyrimido[1,2-b]pyridazines as positive allosteric modulators of the muscarinic acetylcholine receptor M4” (Vanderbilt University, priority 2020, dated 2024)

Legend:
Human M4 = biological target: T1, Human M4 (Homo sapiens, UniProt P08173); experiment: mAChR M4 cell-based functional assay (calcium flux, PAM mode); conditions: hM4-Gqi5 CHO-K1 cells; for Emax at 30 µM: CHO-K1, % ACh maximum at 30 μM; for EC50: concentration-dependent increase in the EC20 acetylcholine response
T1 construct: expressed in transfected cells
T1 sequence (P08173 1-479): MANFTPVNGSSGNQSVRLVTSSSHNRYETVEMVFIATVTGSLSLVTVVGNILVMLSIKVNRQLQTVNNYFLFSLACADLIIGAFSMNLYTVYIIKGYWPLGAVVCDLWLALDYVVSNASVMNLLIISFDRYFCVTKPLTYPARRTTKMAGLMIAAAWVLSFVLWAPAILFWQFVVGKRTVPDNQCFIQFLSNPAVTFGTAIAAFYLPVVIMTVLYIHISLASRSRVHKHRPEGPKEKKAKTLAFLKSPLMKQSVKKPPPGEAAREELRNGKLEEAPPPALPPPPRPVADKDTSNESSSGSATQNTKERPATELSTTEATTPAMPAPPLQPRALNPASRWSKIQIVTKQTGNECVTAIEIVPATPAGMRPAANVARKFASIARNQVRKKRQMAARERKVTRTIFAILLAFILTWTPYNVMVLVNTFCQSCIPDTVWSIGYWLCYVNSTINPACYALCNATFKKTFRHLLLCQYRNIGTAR
In short: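 CHO-K1 cells stably co-expressing human M4 and chimeric Gqi5, Fluo-4 loaded; compound added first (11-point, 1:3 CRC), then EC20 acetylcholine at 144 s and EC80 at 230 s. PAM activity read on FDSS as concentration-dependent increase of EC20 ACh calcium response; EC50 and Emax from four-parameter logistic fit.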

[1] = human, in vivo; cited from earlier work
[2] = Alzheimer's disease patients; Bodick et al. 1997; cited from earlier work
[3] = cited from earlier work

Row | Structure (SMILES) | Emax at 30 µM (Human M4) [%] | EC50 (Human M4) [nM] | other results
1 | Cc1cc2nccc(=O)n2nc1N1CCC(Oc2cc(F)c3c(c2)OCCO3)CC1 [Compound 135, 7-(4-((8-fluoro-2,3-dihydrobenzo[b][1,4]dioxin-6-yl)oxy)piperidin-1-yl)-8-methyl-4H-pyrimido[1,2-b]pyridazin-4-one] | 98 | 75 | –
2 | [2H]C1([2H])Oc2cc(OC3CCN(c4nn5c(=O)ccnc5cc4C)CC3)cc(F)c2OC1([2H])[2H] [Compound 136, 7-(4-((8-fluoro-2,3-dihydrobenzo[b][1,4]dioxin-6-yl-2,2,3,3-d4)oxy)piperidin-1-yl)-8-methyl-4H-pyrimido[1,2-b]pyridazin-4-one] | 97 | 73 | –
3 | [2H]C1([2H])CC(Oc2ccc3c(c2)OC([2H])([2H])C([2H])([2H])O3)CC([2H])([2H])N1c1nn2c(=O)ccnc2cc1C [Compound 137, 7-(4-((2,3-dihydrobenzo[b][1,4]dioxin-6-yl-2,2,3,3-d4)oxy)piperidin-1-yl-2,2,6,6-d4)-8-methyl-4H-pyrimido[1,2-b]pyridazin-4-one] | 105 | 45 | –
4 | Nc1c2c(nc3ccccc13)CCCC2 [tacrine] | – | – | elevated liver transaminases observed in patients [1]: about 30 % of patients
5 | CCCCCCOc1nsnc1C1=CCCN(C)C1 [xanomeline] | – | – | psychotic behavioral symptoms such as delusions, suspiciousness, vocal outbursts, and hallucinations [2]: reduce psychotic behavioral symptoms; activity in animal models with similar profiles to known antipsychotic drugs ([3]; Bymaster et al., Shannon et al.): active; catalepsy ([3]; animal models): without causing catalepsy
